According to patent publication US20200354327A1, “COMPOUND HAVING STAT3 INHIBITORY ACTIVITY AND USE THEREOF” (CYTUS H&B CO., LTD., priority 2017, published 2020):

Experiments:
STAT92E = experiment: Drosophila cell luciferase assay (10XSTAT92E-luciferase reporter); assay type: cell-based; details: activated by the ligand upd or Hop
Method: Drosophila cells (S2-NP, 24×3) used in the experiment were cultured as previously described (Kim B H, et al. Mol Cancer Ther. 7, 2672-2680 (2008)). S2-NP (Drosophila Schneider cell) cells were Drosophila-derived macrophage-like cells and were cultured in Schneider's medium. 24×3 cells were cell lines stably expressed by inserting 10XSTAT92E-luciferase and PolIII-Renilla luciferase-labeled plasmid DNA as reporter constructs into S2-NP cells and were cultured in a medium prepared by adding […] of geneticin to the same medium as that for S2-NP. S2-NP cells in which unpaired (upd) or HOPT^Tum-l as a ligand was expressed and 24×3 cells constructed with reporter constructs were mixed at a constant ratio and cultured for 24 hours in the presence of a compound, the expression level of STAT92E was measured using a luminometer, and the inhibition effect was compared with that of the DMSO-treated group.

SOCS3 = experiment: Western blot of SOCS3 expression in L540 cells; assay type: cell-based, human
Method: (§1) The human cancer cell lines used in the experiment were U87-MG (human malignant glioblastoma) and MDA-MB-231 (human malignant breast cancer) cell lines, and various kinds of human-derived blood and solid cancer cells including these human cancer cell lines were cultured as previously described (Jung J E, et al. FASEB J. 19, 1296-1298 (2005)). The human Hodgkin lymphoma cancer cell lines L540 and HLDM-2 used in the experiment were obtained from the German Collection of Microorganism and Cell Cultures (DSMZ, Germany) and cultured using RPMI 1640 medium containing 20% FBS in a 5% CO2 incubator at a temperature of 37° C.
(§2) Western blot analysis was performed (Jung J E, et al. FASEB J. 19, 1296-1298 (2005)). The cells were washed two times with PBS and suspended in the lysate (50 mM Tris-HCl, pH 7.4, 350 mM NaCl, 1% Triton X-100, 0.5% Nonidet P-40, 10% glycerol, 0.1% SDS, 1 mM EDTA, 1 mM EGTA, 1 mM Na3VO4, 1 mM PMSF, protease and phosphorylation inhibitor) and the cell membrane and nuclear membrane were crushed to lyse the cells. The insoluble protein fraction was removed by centrifugation, and the supernatant was mixed with SDS electrophoresis buffer and electrophoresis (SDS-PAGE) was performed to detect the protein with the desired antibody and to confirm the protein expression level.

JAK3 = molecular target: T1, JAK3 (Homo sapiens, UniProt P52333); experiment: Western blot of upper signaling in L540 cells: JAK3; assay type: cell-based
T1 construct: endogenous in cells; host or cells: L540
T1 sequence (P52333 1-1124): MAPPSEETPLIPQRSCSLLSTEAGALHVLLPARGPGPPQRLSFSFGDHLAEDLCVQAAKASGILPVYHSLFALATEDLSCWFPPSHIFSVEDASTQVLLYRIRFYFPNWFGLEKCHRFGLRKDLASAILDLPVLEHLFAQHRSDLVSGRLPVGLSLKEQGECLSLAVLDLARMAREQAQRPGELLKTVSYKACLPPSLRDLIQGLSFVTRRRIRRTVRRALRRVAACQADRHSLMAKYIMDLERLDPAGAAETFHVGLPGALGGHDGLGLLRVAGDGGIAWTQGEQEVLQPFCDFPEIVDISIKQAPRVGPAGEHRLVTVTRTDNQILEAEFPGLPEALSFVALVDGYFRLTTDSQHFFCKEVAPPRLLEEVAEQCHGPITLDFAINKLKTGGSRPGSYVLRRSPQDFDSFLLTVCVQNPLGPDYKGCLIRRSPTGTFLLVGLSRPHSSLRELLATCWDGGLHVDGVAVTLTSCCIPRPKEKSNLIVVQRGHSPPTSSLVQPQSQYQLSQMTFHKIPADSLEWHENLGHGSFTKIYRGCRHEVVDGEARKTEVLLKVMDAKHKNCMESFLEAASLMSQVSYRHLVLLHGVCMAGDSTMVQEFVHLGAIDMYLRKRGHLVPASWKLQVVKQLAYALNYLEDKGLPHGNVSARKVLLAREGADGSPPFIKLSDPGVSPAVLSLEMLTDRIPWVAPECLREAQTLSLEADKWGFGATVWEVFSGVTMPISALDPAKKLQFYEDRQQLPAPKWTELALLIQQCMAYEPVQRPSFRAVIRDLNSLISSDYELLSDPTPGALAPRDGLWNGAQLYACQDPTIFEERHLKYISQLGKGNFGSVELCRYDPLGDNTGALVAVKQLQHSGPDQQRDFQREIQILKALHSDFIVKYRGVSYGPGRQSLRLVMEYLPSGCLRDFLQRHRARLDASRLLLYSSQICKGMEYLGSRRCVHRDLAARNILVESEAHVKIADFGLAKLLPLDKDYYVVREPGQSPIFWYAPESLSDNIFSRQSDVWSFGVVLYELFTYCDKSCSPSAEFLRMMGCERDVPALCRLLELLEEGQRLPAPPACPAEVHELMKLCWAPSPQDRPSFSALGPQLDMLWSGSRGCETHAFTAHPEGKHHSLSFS
Method: as §1, §2

Src family kinase Lyn = molecular target: T2, Src family kinase Lyn (Homo sapiens, UniProt P07948); experiment: Western blot of signaling in L540 cells: Lyn; assay type: cell-based
T2 construct: endogenous in cells; host or cells: L540
Method: as §1, §2

ERK signaling process = experiment: Western blot of signaling in L540 cells: ERK; assay type: cell-based, human
Method: as §1, §2

STAT3 [1] = molecular target: T3, STAT3 (Homo sapiens, UniProt P40763); experiment: Western blot in Hodgkin lymphoma cell line L540; assay type: cell-based; set-up: endogenous in cells; host or cells: L540, HDLM-2, U87-MG, MDA-MB-231, further human glioblastoma and breast cancer lines; details: L540 cells
Method: as §1, §2

STAT3 [2] = molecular target: T3, STAT3; experiment: Western blot in HDLM-2 cells; assay type: cell-based; set-up: endogenous in cells; host or cells: L540, HDLM-2, U87-MG, MDA-MB-231, further human glioblastoma and breast cancer lines
Method: as §1, §2

STAT3 [3] = molecular target: T3, STAT3; experiment: Western blot of the 46 Table 1 compounds in Hodgkin lymphoma cell lines L540 and HDLM-2; assay type: cell-based; set-up: endogenous in cells; host or cells: L540, HDLM-2, U87-MG, MDA-MB-231, further human glioblastoma and breast cancer lines
Method: as §1, §2

T3 sequence (P40763 whole entry): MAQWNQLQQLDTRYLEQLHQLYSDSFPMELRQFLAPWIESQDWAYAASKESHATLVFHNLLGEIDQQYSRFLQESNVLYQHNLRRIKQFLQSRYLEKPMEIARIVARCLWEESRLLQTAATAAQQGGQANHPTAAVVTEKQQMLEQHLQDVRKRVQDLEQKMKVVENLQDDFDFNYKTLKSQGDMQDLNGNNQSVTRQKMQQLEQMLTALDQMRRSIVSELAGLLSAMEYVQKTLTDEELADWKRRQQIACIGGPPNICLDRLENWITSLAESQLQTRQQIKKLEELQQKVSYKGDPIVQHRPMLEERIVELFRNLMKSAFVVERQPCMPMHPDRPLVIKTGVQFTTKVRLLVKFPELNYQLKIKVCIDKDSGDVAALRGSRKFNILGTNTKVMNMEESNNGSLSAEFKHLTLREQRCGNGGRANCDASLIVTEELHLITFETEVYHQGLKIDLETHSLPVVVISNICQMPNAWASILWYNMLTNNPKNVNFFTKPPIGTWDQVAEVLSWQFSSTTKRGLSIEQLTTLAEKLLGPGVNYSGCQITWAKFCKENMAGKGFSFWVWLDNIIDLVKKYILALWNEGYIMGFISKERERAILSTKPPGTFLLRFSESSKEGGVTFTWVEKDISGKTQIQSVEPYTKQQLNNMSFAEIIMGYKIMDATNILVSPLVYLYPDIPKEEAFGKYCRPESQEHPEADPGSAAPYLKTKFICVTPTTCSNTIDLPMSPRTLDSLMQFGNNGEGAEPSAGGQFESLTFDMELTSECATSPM
T2 sequence (P07948 whole entry): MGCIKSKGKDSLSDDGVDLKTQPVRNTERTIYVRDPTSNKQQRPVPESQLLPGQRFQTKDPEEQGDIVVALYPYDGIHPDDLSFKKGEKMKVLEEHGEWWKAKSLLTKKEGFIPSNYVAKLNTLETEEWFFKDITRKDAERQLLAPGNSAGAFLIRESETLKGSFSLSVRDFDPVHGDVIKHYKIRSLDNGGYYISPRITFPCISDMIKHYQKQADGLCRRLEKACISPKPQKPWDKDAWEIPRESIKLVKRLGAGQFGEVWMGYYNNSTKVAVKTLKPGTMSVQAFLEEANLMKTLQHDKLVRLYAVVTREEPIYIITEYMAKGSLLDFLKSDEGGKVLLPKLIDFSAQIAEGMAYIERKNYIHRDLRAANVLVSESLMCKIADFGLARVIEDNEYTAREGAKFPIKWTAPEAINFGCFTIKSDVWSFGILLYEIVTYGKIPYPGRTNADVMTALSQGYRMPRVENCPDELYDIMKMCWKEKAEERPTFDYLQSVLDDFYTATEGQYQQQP

Row | inhibitory action on JAK3 (JAK3) | inhibitory action on Src family kinase Lyn (Src family kinase Lyn) | Compound | expression of STAT92E (luciferase assay) (STAT92E) | expression of SOCS3 (SOCS3) | inhibitory action on ERK signaling process (ERK signaling process) | phosphorylation of tyrosine residue 705 of STAT3 (STAT3 [1]) | selective inhibitory action on STAT3 versus STAT1 or STAT5 (STAT3 [1]) | phosphorylation of tyrosine residue 705 of STAT3 (STAT3 [2]) | STAT3 inhibitory efficacy, first screening (STAT3 [3]; L540 and HDLM-2) | STAT3 inhibitory efficacy, secondary screening (STAT3 [3]; L540 and HDLM-2, 50 μM) | phosphorylation of STAT tyrosine 705 (STAT3 [3]; L540 and HDLM-2, various concentrations)
1 | weak inhibitory action | did not exert an inhibitory action | CC(C)(C)c1nc(COc2cccc([N+](=O)[O-])c2)no1 [ODZ17690, 5-tert-butyl-3-(3-nitro-phenoxymethyl)-[1,2,4]oxadiazole] | effectively inhibited the expression of STAT92E | effectively inhibited | did not exert an inhibitory action | effectively inhibited the phosphorylation of tyrosine residue 705 of STAT3 | stronger selective inhibitory action on STAT3 than on STAT1 or STAT5 | selectively inhibited phosphorylation of tyrosine residue 705 of STAT3 |  |  | 
2 |  |  | Cc1ccc(S(=O)(=O)Nc2cccc(C(=O)Nc3cccnc3)c2)cc1 [compound 46, 3-{[(4-methylphenyl)sulfonyl]amino}-N-3-pyridinylbenzamide] |  |  |  |  |  |  | judged to exert superior STAT3 inhibitory efficacy | judged to exert superior STAT3 inhibitory efficacy | significantly inhibited the phosphorylation of STATdml tyrosine 705 in a concentration-dependent manner
